Measured values published in patent publication US20250288619A1, “PHARMACEUTICAL COMPOSITION, MEGASPHAERA, AND USE THEREOF” (MOON (GUANGZHOU) BIOTECH CO., LTD., priority 2022, published 2025).

Legend:
[1] = test system: strain MNH22004; test: Antibiotic sensitivity test by disk diffusion method, strain MNH22004; assay type: cell-based, Megasphaera sp.
Procedure: (§1) Antibiotic sensitivity tests of the strains MNH05026, MNH22004, and MNH27256: Antibiotic sensitivity tests were carried out on the strain MNH05026 by a disk diffusion method.

[2] = test system: strain MNH05026; test: Antibiotic sensitivity test by disk diffusion method, strain MNH05026; assay type: cell-based, Megasphaera sp.
Procedure: as §1

[3] = test system: strain MNH27256; test: Antibiotic sensitivity test by disk diffusion method, strain MNH27256; assay type: cell-based, Megasphaera sp.
Procedure: as §1

[4] = test system: ectopic syngeneic liver cancer model; test: Therapeutic effect of MNH05026 in combination with Lenvatinib on liver cancer; assay type: in vivo, mouse; details: male BALB/c mice
Excerpt: 104 male BALB/c mice were purchased, and inoculated with tumor cells after the quarantine was completed, to establish an ectopic syngeneic liver cancer model. The day of tumor cell inoculation was D1. […] Mice with abnormal tumor growth were discarded and the remaining mice were randomized into 10 groups according to the tumor volume on that day, with 7 mice per group. […] Group A was the Negative Control group, Group B was the positive control Lenvatinib group, Group J was the Lenvatinib+MNH05026 combination group, and Groups C-I received other test articles in combination with Lenvatinib. On the day of grouping, interventions were carried out according to the grouping. During the experiment, animal characteristics, tumor changes, tumor sizes, and mouse weights were monitored regularly. At the experimental endpoint, body weight changes, tumor volume changes, response rates, and tumor growth inhibition rates were analyzed.
(§2) Statistical analysis was performed using Two-Way ANOVA with Dunnett's multiple comparisons at the experimental endpoint. Significance of difference vs. the Control group: not significant (ns), p value≥0.05; *, p value<0.05; **, p value<0.01; ***, p value<0.001; ****, p value<0.0001.
as §2, with “FIGS. 17B and 17C present the mouse tumor volume data as mean±standard deviation (mm3). Statistical” for “Statistical”

Row | Compound | Diameter of inhibition zone by MNH22004 [1] | Sensitivity or resistance of strain MNH22004 to the antibiotic [1] | Diameter of inhibition zone by MNH05026 [2] | Sensitivity or resistance of strain MNH05026 to the antibiotic [2] | Diameter of inhibition zone by MNH27256 [3] | Sensitivity or resistance of strain MNH27256 to the antibiotic [3] | Body weight during the experiment [4] | Response rate [4] | Tumor volume at the experimental endpoint vs Control group [4]
1 | CC1(C)S[C@@H]2[C@H](NC(=O)[C@H](N)c3ccccc3)C(=O)N2[C@H]1C(=O)O [Ampicillin] | 0 mm | resistant | 19.91 mm | sensitive | 0 mm | resistant | – | – | –
2 | CO/N=C(\C(=O)N[C@@H]1C(=O)N2C(C(=O)O)=C(CSc3nc(=O)c(=O)[nH]n3C)CS[C@H]12)c1csc(N)n1 [Ceftriaxone] | 12.78 mm | sensitive | 29.42 mm | sensitive | 0 mm | resistant | – | – | –
3 | O=C(N[C@H](CO)[C@H](O)c1ccc([N+](=O)[O-])cc1)C(Cl)Cl [Chloramphenicol] | 33.29 mm | sensitive | 37.02 mm | sensitive | 34.45 mm | sensitive | – | – | –
4 | O=C(O)c1cn(C2CC2)c2cc(N3CCNCC3)c(F)cc2c1=O [Ciprofloxacin] | 35.42 mm | sensitive | 37.66 mm | sensitive | 34.69 mm | sensitive | – | – | –
5 | CC[C@H]1OC(=O)[C@H](C)[C@@H](O[C@H]2C[C@@](C)(OC)[C@@H](O)[C@H](C)O2)[C@H](C)[C@@H](O[C@@H]2O[C@H](C)C[C@H](N(C)C)[C@H]2O)[C@](C)(O)C[C@@H](C)C(=O)[C@H](C)[C@@H](O)[C@]1(C)O [Erythromycin] | 21.03 mm | sensitive | 15.65 mm | sensitive | 9.0 mm | sensitive | – | – | –
6 | COc1cc2nccc(Oc3ccc(NC(=O)NC4CC4)c(Cl)c3)c2cc1C(N)=O [Lenvatinib] | – | – | – | – | – | – | increased steadily | 85.71% | significant decrease
7 | CCC[C@@H]1C[C@@H](C(=O)N[C@@H]([C@H]2O[C@H](SC)[C@H](O)[C@@H](O)[C@H]2O)[C@@H](C)O)N(C)C1 [Lincomycin] | 11.34 mm | sensitive | 38.99 mm | sensitive | 8.81 mm | sensitive | – | – | –
8 | CN(C)[C@@H]1C(O)=C(C(N)=O)C(=O)[C@@]2(O)C(O)=C3C(=O)c4c(O)cccc4[C@@](C)(O)[C@H]3C[C@@H]12 [Tetracycline] | 10.48 mm | – | 21.44 mm | – | 17.75 mm | – | – | – | –
9 | Gentamicin | 9.00 mm | sensitive | 13.97 mm | sensitive | 9.37 mm | sensitive | – | – | –
10 | Penicillin | 0 mm | resistant | 29.75 mm | sensitive | 0 mm | resistant | – | – | –
11 | Trimethoprim-sulfamethoxazole | 17.08 mm | sensitive | 10.65 mm | sensitive | 12.75 mm | sensitive | – | – | –
